Results from patent publication US20240254132A1, “COMPOUNDS, COMPOSITIONS AND METHODS” (Denali Therapeutics Inc., priority 2021, published 2024).

Test system: IL-1β secretion, THP-1 cells
Test: IL-1β secretion assay in PMA-differentiated THP-1 cells (LPS + nigericin stimulation, IL-1β ELISA)
Format: cell-based
Conditions: LPS 25 ng/mL, IL-1β by ELISA
Experimental: Compounds as provided herein were tested in the following assay. Cell culture medium employed contained RPMI 1640 medium (89%), FBS (10%), Pen/Strep (1%), and 2-mercaptoethanol (0.05 mm). Freezing medium was made up of 90% FBS and 10% DMSO. THP-1 cells were removed from the liquid nitrogen and placed into a 37° C. water bath to thaw, until signs of ice dissipated. The cells were then added to 9 mL of warm cell culture medium and centrifuged for 5 minutes at 1000 rpm. The supernatant was discarded, and the cells were resuspended in new cell culture medium. THP-1 cells were then split and cultured in the cell culture medium, being passaged every 2-3 days with the cell density will be maintained between 5×10^5 and 1.5×10^6 viable cells/mL.
Procedure for […], Secretion Assay in 384-Well Plates
PMA was dissolved in DMSO to make a stock solution at 5 mg/mL and stored in 10 μl aliquots at −20° C. for single use. PMA is added to normal growth medium. LPS was diluted with 1 mL of water solution to provide a 1 mg/mL stock solution and stored in 15 μl aliquots at −20° C. for single use. Nigericin is diluted in ice cold 100% ethanol to 5 mg/mL (6.7 mM) and stored in 75 μL aliquots at −20° C. for single use. Serum-free media contains RPMI 1640 medium (99%), Pen/Strep (1%), and 2-mercaptoethanol (0.05 mM). The two control conditions used to qualify and normalize test compound dose-response curves were as follows: High Control=25 ng/mL LPS, 5 μM Nigericin, 0.5% DMSO, Low Control=25 ng/mL, LPS, 0.5% DMSO.
THP-1 cells were diluted to provide a suspension at a concentration of 1.0×10^6 cells/mL with the total volume of suspension required to enable the desired number of assay plates. The growth media was supplemented with PMA (5 ng/mL final concentration) and the cells were incubated at 37° C. under a humidified atmosphere of 5% CO2 for 40 h.
All media was carefully aspirated from each culture flask. The cells were washed carefully with 1×DPBS. The cells were then briefly digested with trypsin LE for 5 minutes at 23° C. and immediately resuspended in cell growth media. After resuspension, the cells were centrifuged at 1000 rpm for 3 minutes and the supernatant was discarded. The cells were resuspended in DPBS and once again centrifuged at 1000 rpm for 5 minutes. The supernatant was discarded and the cell pellet was resuspended in serum-free media supplemented with LPS (25 ng/mL final concentration) to enable the distribution of 30K THP-1 cells within 45 μL of media into each well of 384-well PDL-coated plates. The 384-well plates were then incubated at 37° C. under a humidified atmosphere of 5% CO2 for 2 h. Following this period, test compounds were dispensed by Tecan across the desired concentration range with all wells normalized to a final 0.5% DMSO concentration. The plates were then incubated at 37° C. under a humidified atmosphere of 5% CO2 for 1 h. Following this period, 5 μL of the 5 mg/mL nigericin stock solution was added to each of the appropriate wells and plates were centrifuged at 1000 rpm for 30 seconds. The plates were the immediately reintroduced to the incubator at 37° C. under a humidified atmosphere of 5% CO2 for 2 h. After this time, 35 μL/well of supernatant was collected and transferred into v-bottom plate and centrifuged at 1000 rpm for 1 minute. These supernatant aliquots were analyzed using an IL-Iβ detection kit as described below. If needed, the test samples could be snap frozen and stored at −80° C. until analyzed.
To prepare each ELISA plate, capture antibody (mAb Mt175) was diluted with PBS to a final concentration of 2 μg/mL and then 20 μL of this solution was added to each well of the ELISA plate. Each plate was allowed to incubate overnight at 4° C. The next day, the capture antibody solution was removed and discarded. Each ELISA plate was washed 4 times with PBST followed by the addition of 25 μL/well of blocking buffer (Licor-927-40010) supplemented with 0.1% Tween 20. […]

[1] = Homo sapiens, THP-1, class symbol
[2] = Homo sapiens, THP-1, numeric value

| IC50 [1] [nM] | IC50 [2] [nM] | IC50 (numeric value) [nM] | IC50 (class symbol) [nM] | SMILES |
| --- | --- | --- | --- | --- |
| < 10000 | 137 | – | – | O=C(CN1C(=O)c2ccc(Br)cc2C2(CC2)C1=O)Nc1ncc(Cl)cn1 [Example 32, 2-(6′-bromo-1′,3′-dioxospiro[cyclopropane-1,4′-isoquinoline]-2′-yl)-N-(5-chloropyrimidin-2-yl)acetamide] |
| < 10000 | 208 | – | – | N#Cc1cnc(NC(=O)CN2C(=O)c3ccc(Br)cc3C3(CC3)C2=O)nc1 [Example 31, 2-(6′-bromo-1′,3′-dioxospiro[cyclopropane-1,4′-isoquinoline]-2′-yl)-N-(5-cyanopyrimidin-2-yl)acetamide] |
| < 10000 | 90 | – | – | N#Cc1cnc(NC(=O)CN2C(=O)c3ccc(Br)c(F)c3C3(CC3)C2=O)nc1 [Example 26, 2-(6′-bromo-5′-fluoro-1′,3′-dioxospiro[cyclopropane-1,4′-isoquinoline]-2′-yl)-N-(5-cyanopyrimidin-2-yl)acetamide] |
| < 10000 | 269 | – | – | CC1(C)C(=O)N(CC(=O)Nc2ncc(F)cn2)C(=O)c2ccc(Br)cc21 [Example 7] |
| < 10000 | 388 | – | – | O=C(CN1C(=O)c2ccc(Br)cc2C2(CCC2)C1=O)Nc1ncc(F)cn1 [Example 8, 2-(6′-bromo-1′,3′-dioxospiro[cyclobutane-1,4′-isoquinoline]-2′-yl)-N-(5-fluoropyrimidin-2-yl)acetamide] |
| < 10000 | – | 286 | – | C[C@H]1C[C@@]12C(=O)N(CC(=O)Nc1ncc(F)cn1)C(=O)c1ccc(Br)cc12 (single isomer, unassigned) [Example 13, N-(5-fluoropyrimidin-2-yl)-2-[(1r,2s)-6′-bromo-2-methyl-1′,3′-dioxospiro[cyclopropane-1,4′-isoquinoline]-2′-yl]acetamide] |
| < 10000 | 893 | – | – | O=C(CN1C(=O)c2ccc(C(F)(F)F)cc2C2(CC2)C1=O)Nc1ncc(F)cn1 [Example 15, 2-[1′,3′-dioxo-6′-(trifluoromethyl)spiro[cyclopropane-1,4′-isoquinoline]-2′-yl]-N-(5-fluoropyrimidin-2-yl)acetamide] |
| < 10000 | 184 | – | – | O=C(CN1C(=O)c2ccc(Br)cc2C2(CC2)C1=O)Nc1ncc(F)cn1 [Example 33, 2-(6′-bromo-1′,3′-dioxospiro[cyclopropane-1,4′-isoquinoline]-2′-yl)-N-(5-fluoropyrimidin-2-yl)acetamide] |
| < 10000 | 391 | – | – | CC1CC12C(=O)N(CC(=O)Nc1ncc(F)cn1)C(=O)c1ccc(Br)cc12 (stereo not shown) [Example 25, 2-(6′-bromo-2-methyl-1′,3′-dioxospiro[cyclopropane-1,4′-isoquinoline]-2′-yl)-N-(5-fluoropyrimidin-2-yl)acetamide] |
| < 10000 | 331 | – | – | N#Cc1cnc(NC(=O)CN2C(=O)c3ccc(Br)c(F)c3C3(CC3)C2=O)c(F)c1 [Example 18, 2-(6′-bromo-5′-fluoro-1′,3′-dioxospiro[cyclopropane-1,4′-isoquinoline]-2′-yl)-N-(5-cyano-3-fluoropyridin-2-yl)acetamide] |
| – | – | 6660 | < 10000 | C[C@H]1C[C@@]12C(=O)N(CC(=O)Nc1ncc(F)cn1)C(=O)c1ccc(Br)cc12 (single isomer, unassigned) [Example 14, N-(5-fluoropyrimidin-2-yl)-2-[(1r,2s)-6′-bromo-2-methyl-1′,3′-dioxospiro[cyclopropane-1,4′-isoquinoline]-2′-yl]acetamide] |
| < 10000 | 4460 | – | – | O=C(CN1C(=O)c2ccc(Br)cc2C2(COC2)C1=O)Nc1ncc(F)cn1 [Example 19, 2-(6-bromo-1,3-dioxospiro[isoquinoline-4,3′-oxetane]-2-yl)-N-(5-fluoropyrimidin-2-yl)acetamide] |
| < 10000 | 918 | – | – | O=C(CN1C(=O)c2ccc(C(F)(F)F)c(F)c2C2(CC2)C1=O)Nc1ncc(F)cn1 [Example 16, 2-[5′-fluoro-1′,3′-dioxo-6′-(trifluoromethyl)spiro[cyclopropane-1,4′-isoquinoline]-2′-yl]-N-(5-fluoropyrimidin-2-yl)acetamide] |
| < 10000 | 307 | – | – | O=C(CN1C(=O)c2ccc(Br)cc2C2(CC2)C1=O)N[C@@H]1CCCN(C2CCC2)C1 [Example 9, 2-(6′-bromo-1′,3′-dioxospiro[cyclopropane-1,4′-isoquinoline]-2′-yl)-N-[(3R)-1-cyclobutylpiperidin-3-yl]acetamide] |
| < 10000 | 2170 | – | – | CCC(C(=O)Nc1ncc(F)cn1)N1C(=O)c2ccc(Br)cc2C2(CC2)C1=O (stereo not shown) [Example 23, 2-(6′-bromo-1′,3′-dioxospiro[cyclopropane-1,4′-isoquinoline]-2′-yl)-N-(5-fluoropyrimidin-2-yl)butanamide] |
| < 10000 | 261 | – | – | Cc1cnc(NC(=O)CN2C(=O)c3ccc(Br)c(F)c3C3(CC3)C2=O)nc1 [Example 20, 2-(6′-bromo-5′-fluoro-1′,3′-dioxospiro[cyclopropane-1,4′-isoquinoline]-2′-yl)-N-(5-methylpyrimidin-2-yl)acetamide] |
| < 10000 | 332 | – | – | O=C(CN1C(=O)c2ccc(C3CC3)c(F)c2C2(CC2)C1=O)Nc1ncc(F)cn1 [Example 11, 2-(6′-cyclopropyl-5′-fluoro-1′,3′-dioxospiro[cyclopropane-1,4′-isoquinoline]-2′-yl)-N-(5-fluoropyrimidin-2-yl)acetamide] |
| 10000 to 15000 | 13100 | – | – | O=C(CN1C(=O)c2ccc(Br)cc2C2(CC(F)(F)C2)C1=O)Nc1ncc(F)cn1 [Example 10, 2-(6′-bromo-1,1-difluoro-1′,3′-dioxospiro[cyclobutane-3,4′-isoquinoline]-2′-yl)-N-(5-fluoropyrimidin-2-yl)acetamide] |
| < 10000 | 99 | – | – | O=C(CN1C(=O)c2ccc(Br)c(F)c2C2(CC2)C1=O)Nc1ncc(F)cn1 [Example 29, 2-(6′-bromo-5′-fluoro-1′,3′-dioxospiro[cyclopropane-1,4′-isoquinoline]-2′-yl)-N-(5-fluoropyrimidin-2-yl)acetamide] |
| < 10000 | 8080 | – | – | O=C1c2ccc(Br)cc2C2(CC2)C(=O)N1C1(C(=O)Nc2ncc(F)cn2)CC1 [Example 22, 1-(6′-bromo-1′,3′-dioxospiro[cyclopropane-1,4′-isoquinoline]-2′-yl)-N-(5-fluoropyrimidin-2-yl)cyclopropane-1-carboxamide] |
| < 10000 | 88 | – | – | O=C(CN1C(=O)c2ccc(Br)c(F)c2C2(CC2)C1=O)Nc1ncc2cn[nH]c2n1 [Example 24, 2-(6′-bromo-5′-fluoro-1′,3′-dioxospiro[cyclopropane-1,4′-isoquinoline]-2′-yl)-N-(1H-pyrazolo[3,4-d]pyrimidin-6-yl)acetamide] |
| < 10000 | 1360 | – | – | O=C(CN1C(=O)c2ccc(Br)cc2C2(CCCC2)C1=O)Nc1ncc(F)cn1 [Example 12, 2-(6′-bromo-1′,3′-dioxospiro[cyclopentane-1,4′-isoquinoline]-2′-yl)-N-(5-fluoropyrimidin-2-yl)acetamide] |
| < 10000 | 2400 | – | – | CC1(C(F)(F)F)C(=O)N(CC(=O)Nc2ncc(F)cn2)C(=O)c2ccc(Br)cc21 (stereo not shown) [Example 17, 2-[6-bromo-4-methyl-1,3-dioxo-4-(trifluoromethyl)isoquinolin-2-yl]-N-(5-fluoropyrimidin-2-yl)acetamide] |
